Experimental data taken from ChEMBL document CHEMBL1201862, “PubChem BioAssay data set” (2004).
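Each compound was tested at five concentrations against cells in 96-well plates for 48 hours. GI50: concentration for 50% inhibition of growth.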 Calls of active or inactive are those of the source. Cut-off read from the data, not from the text of the source: active = GI50 up to about 1.1 µM and inactive = higher.

What was measured:
Test in all cases: NCI-60 cell line screen, 48 h
A498 = test system: A498
BT-549 = test system: BT-549
DU-145 = test system: DU-145
HCC 2998 = test system: HCC 2998
HOP-92 = test system: HOP-92
Hs-578T = test system: Hs-578T
M14 = test system: M14
MCF7 = test system: MCF7
MDA-MB-435 = test system: MDA-MB-435
MDA-N = test system: MDA-N
MOLT-4 = test system: MOLT-4
NCI-H226 = test system: NCI-H226
NCI/ADR-RES = test system: NCI/ADR-RES
PC-3 = test system: PC-3
SK-MEL-28 = test system: SK-MEL-28
SN12C = test system: SN12C
SNB-19 = test system: SNB-19
T47D = test system: T47D

Measured: GI50

CC12CCC(O)CC1CCC1C2CCC2(C)C(C(=O)CC(O)C(F)(F)F)CCC12 (stereo not drawn)
inactive: A498 20.2 µM | BT-549 > 78.3 µM | DU-145 > 87.5 µM | HCC 2998 21.6 µM | HOP-92 31.8 µM | Hs-578T 23.9 µM | M14 20.8 µM | MCF7 31.2 µM | MDA-MB-435 > 75 µM | MDA-N 61.1 µM | MOLT-4 9.35 µM | NCI-H226 40 µM | NCI/ADR-RES 24.9 µM | PC-3 30.6 µM | SK-MEL-28 73.5 µM | SN12C > 100 µM | SNB-19 24.9 µM | T47D 20.2 µM

CC(=O)c1nccc2c1c(C)nc1ccccc12
inactive: A498 48 µM | BT-549 97.3 µM | DU-145 > 100 µM | HOP-92 25.8 µM | Hs-578T 30.3 µM | M14 > 100 µM | MCF7 39.7 µM | MDA-MB-435 > 100 µM | MDA-N 53.6 µM | MOLT-4 44.6 µM | NCI-H226 10.4 µM | NCI/ADR-RES > 100 µM | PC-3 85.1 µM | SK-MEL-28 > 100 µM | SN12C 32.7 µM | SNB-19 > 100 µM | T47D 43.4 µM

CSC1=Nc2ccccc2N(C)c2c1c(-c1ccccc1)nn2C
inactive: BT-549 57.7 µM | DU-145 91.6 µM | HCC 2998 13.3 µM | HOP-92 29.5 µM | Hs-578T 68.9 µM | M14 41.9 µM | MCF7 23.8 µM | MDA-MB-435 28.4 µM | MDA-N 27.7 µM | MOLT-4 8.99 µM | NCI/ADR-RES 21.8 µM | PC-3 35.1 µM | SK-MEL-28 > 100 µM | SN12C 54.5 µM | T47D 9.79 µM

CCCCCCNC(=O)C1=C(C)NC(C)=C(C(=O)NCCCCCC)C1
inactive: A498 > 100 µM | BT-549 > 100 µM | DU-145 > 100 µM | HCC 2998 > 100 µM | HOP-92 73.3 µM | Hs-578T > 100 µM | M14 > 100 µM | MCF7 > 100 µM | MDA-MB-435 64.7 µM | MDA-N 75.5 µM | MOLT-4 > 100 µM | NCI-H226 > 100 µM | NCI/ADR-RES > 100 µM | PC-3 > 100 µM | SK-MEL-28 > 100 µM | SN12C > 100 µM | SNB-19 > 100 µM | T47D > 100 µM

O=C1CSC(c2ccc(Cl)cc2Cl)N1c1ccc(Oc2ccc(Cl)cc2)c(Cl)c1 (stereo not drawn)
inactive: BT-549 22.2 µM | DU-145 32.1 µM | HCC 2998 31 µM | HOP-92 21.8 µM | Hs-578T 14.7 µM | M14 23.9 µM | MCF7 33.2 µM | MDA-MB-435 12.6 µM | MDA-N 21.7 µM | MOLT-4 24.3 µM | NCI-H226 22.1 µM | NCI/ADR-RES 21.6 µM | PC-3 27.8 µM | SK-MEL-28 39.4 µM | SN12C 37.7 µM | SNB-19 23.6 µM | T47D 23.4 µM

COC1=C(C(c2cc(OC)c(OC)c(OC)c2)c2cc3c(cc2OC)OCO3)C(=O)OC1 (stereo not drawn)
inactive: A498 14.9 µM | BT-549 47.2 µM | DU-145 29.2 µM | HCC 2998 44.1 µM | HOP-92 58.9 µM | Hs-578T 9.18 µM | M14 17.9 µM | MCF7 29 µM | MDA-MB-435 4.66 µM | MDA-N 3.94 µM | MOLT-4 44.2 µM | NCI-H226 28.4 µM | NCI/ADR-RES 5.69 µM | PC-3 15.7 µM | SK-MEL-28 12.7 µM | SN12C 34.8 µM | SNB-19 30.7 µM | T47D > 100 µM

C[C@@]12CCC(=O)C=C1CC[C@H]1C2=CC[C@]2(C)C1CC[C@@]2(C)O (stereo partly drawn)
inactive: A498 > 100 µM | BT-549 33.1 µM | DU-145 > 100 µM | HCC 2998 49 µM | HOP-92 > 100 µM | Hs-578T 38.2 µM | M14 50.6 µM | MCF7 57.3 µM | MDA-MB-435 23.3 µM | MDA-N 23 µM | MOLT-4 38.4 µM | NCI-H226 > 100 µM | NCI/ADR-RES 34.7 µM | PC-3 41.5 µM | SK-MEL-28 > 100 µM | SN12C 88.7 µM | SNB-19 > 100 µM | T47D 73.5 µM

CCOC(=O)c1ccc(C(=O)C(C(C)=O)C(=O)OC(C)(C)C)[nH]1 (stereo not drawn)
inactive: A498 > 100 µM | BT-549 > 100 µM | DU-145 > 100 µM | HCC 2998 > 100 µM | Hs-578T > 100 µM | M14 > 100 µM | MCF7 > 100 µM | MDA-MB-435 > 100 µM | MDA-N > 100 µM | MOLT-4 > 100 µM | NCI-H226 > 100 µM | NCI/ADR-RES > 100 µM | PC-3 > 100 µM | SK-MEL-28 > 100 µM | SN12C > 100 µM | SNB-19 > 100 µM | T47D > 100 µM
